Experimental findings from patent US20260139017A1, “COMPOSITIONS AND METHODS USING REELIN IN ALZHEIMER'S DISEASE” (The General Hospital Corporation, priority 2022, published 2026) are described below.

The test system of test [1] is pDAB1 (Tyr232). The test is described as follows: HRECs treated 5 minutes with recombinant mini-RELN, pDAB1 western blot. It is filed as cell-based, human. The settings on record: 5 minutes, 4 ug/mL recombinant protein. As to the method: For in vitro screening of constructs using recombinant mini-RELN on HRECs, the cells were cultured in EBM-2 media enriched with EGM-2 Single Quots (Lonza) at 37° C. and 5% CO2 and experimentally tested at passage 7. 24 h prior experiment, cells were plated on a 6-well plate at 500,000 cells/mL. Two hours before the experiment, the cells were washed with PBS to remove residual growth media and then incubated with a starving media including EBM-2, 1% GlutaMax+0.2% Normicin. Treatments was conducted using recombinant mini RELN constructs obtained from Innovagen and Recombinant Mouse Reelin Protein from R&D systems (3820-MR-025/CF). Each treatment was incubated for 5 minutes at 4 ug/mL concentration and cells were subsequently harvested in lysis buffer was applied constituted of RIPA (Cell signaling), proteases inhibitors (cOmplete™, Mini, EDTA-free Protease Inhibitor Cocktail, Roche), phosphatases inhibitors (PhosSTOP, Roche), 1 μL of proteasome inhibitor MG-132 10 mM, 1% Triton X 100. The lysates were scraped and centrifugated at 15000 rpm for 10 minutes at 4° C. Total protein levels were quantified via BCA assay. […] We detected pDAB1 (Tyr232; 1:1000, rabbit, #3325 Cell signaling), and total protein staining (Licor). […] To quantify the results, each band was quantified using ImageJ and data expressed as pDABL:total protein ratio normalized to the control.

For test [2], the system named is pDAB1 (Tyr232). The test is described as follows: HRECs treated 5 minutes with HEK 293T-derived mini-RELN media, pDAB1 western blot. The format is cell-based, human. The settings on record: HEK 293T-derived media 1:1, 1:4, 1:14, 5 minutes. As to the method:
The effect of in vitro treatment with RELN or miniRELN protein was also evaluated. HRECs were cultured in EBM-2 media enriched with EGM-2 Single Quots (Lonza) at 37° C. and 5% CO2 and experimentally tested at passage 7. 24 h prior experiment, cells were plated on a 6-well plate at 500,000 cells/mL. Two hours before the experiment, the cells were washed with PBS to remove residual growth media and then incubated with a starving media including EBM-2, 1% GlutaMax+0,2% Normicin. Treatments was conducted using media derived from HEK 293T cells transiently transfected for 24 h with different mini-RELN constructs in the presence of Lipofectamine 2000. […] Total protein levels were quantified via BCA assay. […] We detected pDAB1 (Tyr232; 1:1000, rabbit, #3325 Cell signaling), and Beta actin (1:5000, mouse, #66009-1-Ig, Proteintech. Antibodies were diluted using Intercept® (TBS) Blocking Buffer and incubated overnight at 4C under gentle shaking. Prior secondary antibody incubation, membranes were washes 2 times using TBS-T for 10 minutes. As secondary antibodies we used IR Dye 800n CW Goat-anti-Rabbit (925-32211, Licor) and IR Dye 680 CW Goat-anti-Mouse (925-68070, Licor) both diluted 1:10000 in blocking buffer for 1 h at room temperature under gentle shaking. Membranes were washed three times with TBS-T prior IR detection using Odyssey imager. […]
(In general: A western blot detects proteins with antibodies after separation by electrophoresis.)

As for “IL2signalpeptide-6XHistag(SEQ ID NO: 62)-hReelin(AALeu1220-Ile2660) Cterm-REELINWT [225SV]”, in test [1], the pDAB1 levels result is on record as “increased pDAB1 levels”. Also, the “pDAB1 / Dab1 signaling activation” value in test [2] is recorded as “efficacy”.
